{"source": "patent US20230049576A1", "about": "“GLUTATHIONE-CONTAINING COMPOSITION” (priority 2019, published 2023)", "key": {"cultured keratinocytes": {"system": "cultured keratinocytes", "conditions": "Cryj1 100 ng/ml with glutathione 5 μg/ml", "description": "Culture keratinocytes (Distributor: Kurabo) were cultured in the EPILIFE-KG2 medium (Distributor: Kurabo) for two days in a humidified atmosphere at 37° C. For the confluent culture, the medium was replaced with EPILIFE-KG2+Ca1.8 mM (Distributor: Kurabo), and then after 28 to 48 hours of incubation, with EPILIFE-KG2 +Cal containing 5 μM of Fura2 AM (Distributor: life technology), following by one hour of culturing. Then, it was replaced with a buffer (pH 7.4) containing NaCl 150 mM, KCI 5 mM, CaCl2 1.8 mM, MgCl2 1.2 mM, HEPES 25 mM, and D-glucose 10 mM, and Cryj1 (Distributor: HAYASHIBARA) was added to the buffer at the concentration of 100 ng/ml alone, or with glutathione (Distributor: Nacalai Tesque, Inc.) (5 μg/ml). Fluorescence was measured with a fluorescence microscope to measure changes in the intracellular calcium concentration.\nThe value of intracellular calcium concentration about 2 minutes after the addition of Cryj1 was calculated and quantified using the Aqua Cosmos software."}, "thrombin": {"molecular_target": "thrombin (Homo sapiens, UniProt P00734)", "assay": "Measurement of thrombin activity (Rox prothrombin kit, chromogenic substrate, absorbance 405 nm)", "format": "biochemical", "conditions": "glutathione 500 μg/ml to 2.5 mg/ml added to 40 ng/ml prothrombin; thrombin activator and substrate added; absorbance 405 nm every 40 seconds; FIG. 1", "description": "A Rox prothrombin kit (Distributor: Rossix) was used for the measurement of thrombin activity. After glutathione (Distributor: Nacalai Tesque, Inc.) was added to a 40 ng/ml solution of prothrombin (Distributor: Invitrogen) at a concentration of 500 μg/ml to 2.5 mg/ml, the thrombin activator and thrombin substrate included in the kit were added and thrombin activity was measured."}, "[1]": {"system": "epidermal permeation barrier", "conditions": "previous study, Non-patent Document 2, Patent Document 1; cited from earlier work"}}}
{"smiles": "N[C@@H](CCC(=O)N[C@@H](CS)C(=O)NCC(=O)O)C(=O)O", "note": "[Glutathione, glutathione]", "values": [{"measurement": "calcium imaging over time (excitation of fluorescence)", "setting": "cultured keratinocytes; FIG. 2", "value": "suppresses the excitation"}, {"measurement": "intracellular calcium concentration about 2 minutes after the addition of Cryj1", "setting": "cultured keratinocytes; FIG. 3", "value": "significantly suppresses the calcium response elicited by Cryj1"}, {"measurement": "thrombin activity (substrate decomposition rate)", "setting": "thrombin", "value": "inhibit thrombin activity in a dose-dependent manner"}]}
{"smiles": "NC[C@H]1CC[C@H](C(=O)O)CC1", "note": "[tranexamic acid]", "values": [{"measurement": "delay in thrombin-mediated recovery of the epidermal permeation barrier induced by Cryj1", "setting": "[1]", "value": "blocks the delay in thrombin-mediated recovery of the epidermal permeation barrier"}]}
